Legend:
[1] = cited from earlier work
[2] = solubility of metaldehyde in methyl iodide, alcohols and their mixtures; format: physicochemical; settings: for recrystallization temperature: bottom products composition
Description: That is, distillation in the presence of alcohols has made it possible to prevent clogging.
It has been confirmed that in the composition of bottom products from the distillation column in the continuous production process for acetic acid, the recrystallization temperature is 18° C. at a methyl iodide/methanol weight ratio of 3/1, 12° C. at 5/4, 6° C. at 3/4, and -9° C. or lower at 1/2. The preferred methyl iodide/methanol weight ratio, which depends on a thermal insulation state, is 5/4 to 1/2.

Question: Which miscibility with water [1] does the source give for `CI` [methyl iodide] here?
Answer: Its miscibility with water is “scarcely miscible”.

Question: For `CC1OC(C)OC(C)OC(C)O1` (stereo not drawn) [metaldehyde], which dissolution in alcohols ([2]; alcohols such as methanol, ethanol, and propanol) is on record?
Answer: Its dissolution in alcohols is “dissolved”.

Question: And the recrystallization temperature ([2]; methyl iodide/methanol weight ratio 1/2)?
Answer: Its recrystallization temperature is no more than -9 °C.

Question: What about the recrystallization temperature ([2]; methyl iodide/methanol weight ratio 3/1) of the same molecule?
Answer: The recrystallization temperature was 18 °C.

Question: What about the recrystallization temperature ([2]; methyl iodide/methanol weight ratio 3/4) of the same molecule?
Answer: Its recrystallization temperature is 6 °C.

Question: And the recrystallization temperature ([2]; methyl iodide/methanol weight ratio 5/4)?
Answer: The recrystallization temperature was 12 °C.

Question: What about the “order of increasing solubilities” value ([2]; methyl iodide, acetaldehyde, methanol, mixed solution of methyl iodide and methanol) of the same molecule?
Answer: Its value is “methyl iodide<<acetaldehyde=methanol<mixed solution of methyl iodide and methanol”.

Question: What about the solubility ([2]; particularly to methyl iodide) of the same molecule?
Answer: The solubility was “low solubility”.

Question: With `CC=O` [acetaldehyde] as the molecule, how does the miscibility with water [1] read?
Answer: Its miscibility with water is “well miscible”.

— US5625095A, “Process for producing high purity acetic acid” (Daicel Chemical Industries, Ltd., priority 1994, dated 1997)
